Data set [1] concerns nitrosoamine-induced pancreatic cancer. Briefly: in vivo hemorrhagic necrosis effect. Set-up: species or system hamsters; key to Hemorrhagic necrosis effect: four scales of G4, G3, G2 and G1; four scales of G4, G3, G2 and G1; four scales of G4, G3, G2 and G1; four scales of G4, G3, G2 and G1. To be noted: for Hemorrhagic necrosis effect: intensity of hemorrhagic necrosis at 24 hours following i.v. administration, and pathological study; for photograph of a cancer mass (Fig. 2) / photograph of a cancer mass (Fig. 1): Cn-Ga-DP-diAsp; for photograph of a cancer mass (Fig. 2): n = even numbers; for photograph of a cancer mass (Fig. 1): n = odd numbers. The procedure: Cancer bearing hamsters of Experiment 1 were i.v. administered the test substance C6-Ga-DP-diAsp (10) (10 mg/ml) which had been diluted with phosphate buffer at 25 mg/kg bodyweight and 12.5 mg/kg bodyweight respectively. The animals were exsanguinated and autopsied at 24 hours after administration, and observed.
The evaluation was based on the four scales of G4, G3, G2 and G1.

Data set [2] shares this test system. Kind of data set: laser irradiation to the extirpated organ (excited fluorescent spectrum, N2-PLS measurement), tumor to tissue ratio. The data set is classed as in vivo, Golden hamsters. Conditions: i.v. 25 mg/kg bodyweight, organs extirpated at 24 hours after administration. Here is the method: Golden hamsters (males, 5 per group, bodyweight approximately 150 g) were implanted subcutaneously tumor cells of the nitrosoamine-induced pancreatic cancer. After 14 to 21 days following implantation, animals were intravenously (i.v.) administered the test substance EG-Ga-DP-diGly (10 mg/ml) which had been diluted with phosphate buffer at 25 mg/kg bodyweight. At 24 hours after administration, the organs including the tumor were extirpated, irradiated with N2-pulsed laser (N2, 337 nm, 2 ns, 400 - 1000 nm), and measured of excited fluorescent spectrum. The wavelengths of 600 - 900 nm were studied using the peak wavelength of NADH at 470 nm as a reference. (N2-PLS measurement). […] (Tumor to tissue ratio).
Excited fluorescent spectra of the organs extirpated at 24 hours after administration were measured, and the peak wavelength at 600 - 900 nm was calculated by setting the peak wavelength at 470 nm as the reference 1. As fluorescence in Mn, Fe and Cu complexes is not sufficiently intense as to enable N2-PLS measurement, the extraction method was applied to these compounds. At 24 hours following administration, the organs were extracted with an organic solvent (such as chloroform-methanol) via acetone powder, and the obtained extract was measured of UV or HPLC to calculate the tumor to tissue ratio.

Regarding `C=CC1=C(C)C2=Cc3c(C(C)OCCO)c(C)c4[n]3[Ga][n]3c(c(C)c(CCC(=O)NC(CC(=O)O)C(=O)O)c3=CC3=NC(=C4)C(C)=C3CCC(=O)NC(CC(=O)O)C(=O)O)=CC1=N2` (centres unmarked) [(2) monoEG-Ga-DP-diAsp, 2-[1-(2-hydroxyethyloxy)ethyl]-4-ethenyl-Ga-deuteroporphynyl diaspartic acid], in data set [1], the Hemorrhagic necrosis effect entry is reported as “G1”. For the same compound, in data set [2], the tumor/tissue cancer/ kidney worked out at 1.32, the tumor/tissue cancer/ liver is reported as 2.30 and the tumor/tissue cancer/ lung is given as 1.50.

For `COC(C)C1=C(C)C2=Cc3c(C(C)OC)c(C)c4[n]3[Ga][n]3c(c(C)c(CCC(=O)NC(CC(=O)O)C(=O)O)c3=CC3=NC(=C4)C(C)=C3CCC(=O)NC(CC(=O)O)C(=O)O)=CC1=N2` (centres unmarked) [(4) C1-Ga-DP-diAsp, 2,4-bis(1-methoxyethyl)-Ga-deuteroporphynyl diaspartic acid], the Hemorrhagic necrosis effect entry in data set [1] is listed as “G1”. For the same compound, in data set [2], the tumor/tissue cancer/ kidney came to 2.27, the tumor/tissue cancer/ liver turned out to be 1.19, the tumor/tissue cancer/ lung is 0.78 and the tumor/tissue cancer/ serum came out at 2.50.

In the case of `CCOC(C)C1=C(C)C2=Cc3c(C(C)OCC)c(C)c4[n]3[Ga][n]3c(c(C)c(CCC(=O)NC(CC(=O)O)C(=O)O)c3=CC3=NC(=C4)C(C)=C3CCC(=O)NC(CC(=O)O)C(=O)O)=CC1=N2` (centres unmarked) [(5) C2-Ga-DP-diAsp, 2,4-bis(1-ethoxyethyl)-Ga-deuteroporphynyl diaspartic acid], the “photograph of a cancer mass (Fig. 2)” value in data set [1] (24 hours after administration) is on record as “hemorrhagic necrosis”. Also, the Hemorrhagic necrosis effect result in data set [1] is “G1”. Besides, in data set [2], the tumor/tissue cancer/ kidney is 1.25, the tumor/tissue cancer/ liver is 0.71, the tumor/tissue cancer/ lung came to 1.25 and the tumor/tissue cancer/ serum is on record as 1.16.

Take `CCCOC(C)C1=C(C)C2=Cc3c(C(C)OCCC)c(C)c4[n]3[Ga][n]3c(c(C)c(CCC(=O)NC(CC(=O)O)C(=O)O)c3=CC3=NC(=C4)C(C)=C3CCC(=O)NC(CC(=O)O)C(=O)O)=CC1=N2` (centres unmarked) [(6) C3-Ga-DP-diAsp, 2,4-bis(1-propoxyethyl)-Ga-deuteroporphynyl diaspartic acid]: the “photograph of a cancer mass (Fig. 1)” value in data set [1] (24 hours after administration) was “hemorrhagic necrosis”. For the same compound, the Hemorrhagic necrosis effect result in data set [1] is “G2”. Moreover, in data set [2], the tumor/tissue cancer/ kidney amounted to 14.44, the tumor/tissue cancer/ liver is reported as 2.95, the tumor/tissue cancer/ lung is recorded as 3.42 and the tumor/tissue cancer/ serum was 5.91.

With `CC1=C(CCC(=O)NC(CC(=O)O)C(=O)O)C2=NC1=Cc1c(C)c(C(C)OC(C)C)c3[n]1[Ga][n]1c(c(C)c(CCC(=O)NC(CC(=O)O)C(=O)O)c1=C2)=CC1=NC(=C3)C(C)=C1C(C)OC(C)C` (centres unmarked) [(7) C3(iso)-Ga-DP-diAsp, 2,4-bis(1-isopropoxyethyl)-Ga-deuteroporphynyl diaspartic acid], in data set [1], the Hemorrhagic necrosis effect entry is given as “G2”. In addition, in data set [2], the tumor/tissue cancer/ kidney turned out to be 3.03, the tumor/tissue cancer/ liver amounted to 2.63, the tumor/tissue cancer/ lung came to 2.33 and the tumor/tissue cancer/ serum was 1.54.

On to `CCCCOC(C)C1=C(C)C2=Cc3c(C(C)OCCCC)c(C)c4[n]3[Ga][n]3c(c(C)c(CCC(=O)NC(CC(=O)O)C(=O)O)c3=CC3=NC(=C4)C(C)=C3CCC(=O)NC(CC(=O)O)C(=O)O)=CC1=N2` (centres unmarked) [(8) C4-Ga-DP-diAsp, 2,4-bis(1-butoxyethyl)-Ga-deuteroporphynyl diaspartic acid], for which, in data set [1] (24 hours after administration), the “photograph of a cancer mass (Fig. 2)” value is reported as “hemorrhagic necrosis” and the “photograph of a cancer mass (Fig. 1)” value is recorded as “hemorrhagic necrosis”. For the same compound, in data set [1], the Hemorrhagic necrosis effect result is on record as “G4”. For the same compound, in data set [2], the tumor/tissue cancer/ kidney was 7.72, the tumor/tissue cancer/ liver came out at 3.54, the tumor/tissue cancer/ lung was found to be 4.47 and the tumor/tissue cancer/ serum was determined as 2.00.

For the compound `CCCCCOC(C)C1=C(C)C2=Cc3c(C(C)OCCCCC)c(C)c4[n]3[Ga][n]3c(c(C)c(CCC(=O)NC(CC(=O)O)C(=O)O)c3=CC3=NC(=C4)C(C)=C3CCC(=O)NC(CC(=O)O)C(=O)O)=CC1=N2` (centres unmarked) [(9) C5-Ga-DP-diAsp, 2,4-bis(1-pentyloxyethyl)-Ga-deuteroporphynyl diaspartic acid], the “photograph of a cancer mass (Fig. 1)” value in data set [1] (24 hours after administration) is “hemorrhagic necrosis”. Also, in data set [1], the Hemorrhagic necrosis effect entry is given as “G4”. In addition, in data set [2], the tumor/tissue cancer/ kidney came out at 6.58, the tumor/tissue cancer/ liver is 4.07, the tumor/tissue cancer/ lung turned out to be 3.89 and the tumor/tissue cancer/ serum came out at 0.89.

On to `C=CC1=C(C)C2=Cc3c(C(C)OCCCCCCCCCCCC)c(C)c4[n]3[Mn][n]3c(c(C)c(CCC(=O)NC(CC(=O)O)C(=O)O)c3=CC3=NC(=C4)C(C)=C3CCC(=O)NC(CC(=O)O)C(=O)O)=CC1=N2` (centres unmarked) [(49) C12(mono)-Mn-DP-diAsp, 2-(1-dodecyloxyethyl)-4-ethenyl-Mn-deuteroporphynyl diaspartic acid], for which the Hemorrhagic necrosis effect result in data set [1] is on record as “G2”.

For `CCCCCCCCCCCCCCOC(C)C1=C(C)C2=Cc3c(C(C)OCCCCCCCCCCCCCC)c(C)c4[n]3[Mn][n]3c(c(C)c(CCC(=O)NC(CC(=O)O)C(=O)O)c3=CC3=NC(=C4)C(C)=C3CCC(=O)NC(CC(=O)O)C(=O)O)=CC1=N2` (centres unmarked) [(51) C14-Mn-DP-diAsp, 2,4-bis(1-tetradecyloxyethyl)-Mn-deuteroporphynyl diaspartic acid], the Hemorrhagic necrosis effect result in data set [1] is “G3”.

Consider `CC1=C(CCC(=O)NC(CC(=O)O)C(=O)O)c2cc3[nH]c(cc4nc(cc5[nH]c(cc1n2)c(C(C)OCC1CCCO1)c5C)C(C(C)OCC1CCCO1)=C4C)c(C)c3CCC(=O)NC(CC(=O)O)C(=O)O.[Mn]` (centres unmarked) [(55) H4Fran-Mn-DP-diAsp, 2,4-bis(1-tetrahydrofurfuryloxyethyl)-Mn-deuteroporphynyl diaspartic acid], for which, in data set [1], the Hemorrhagic necrosis effect result is given as “G2”.

Take `CC1=C(CCC(=O)NC(CC(=O)O)C(=O)O)C2=NC1=Cc1c(C)c(C(C)OCc3cccnc3)c3[n]1[Mn][n]1c(c(C)c(CCC(=O)NC(CC(=O)O)C(=O)O)c1=C2)=CC1=NC(=C3)C(C)=C1C(C)OCc1cccnc1` (centres unmarked) [(57) Nct-Mn-DP-diAsp, 2,4-bis(1-nicotynyloxyethyl)-Mn-deuteroporphynyl diaspartic acid]: in data set [1], the Hemorrhagic necrosis effect result is on record as “G2”.

Turning to `CCCCCCCCOC(C)C1=C(C)C2=Cc3c(C(C)OCCCCCCCC)c(C)c4[n]3[Fe][n]3c(c(C)c(CCC(=O)NC(CC(=O)O)C(=O)O)c3=CC3=NC(=C4)C(C)=C3CCC(=O)NC(CC(=O)O)C(=O)O)=CC1=N2` (centres unmarked) [(62) C8-Fe-DP-diAsp, 2,4-bis(1-octyloxyethyl)-Fe-deuteroporphynyl diaspartic acid], the “photograph of cancer masses (Fig. 3)” value in data set [1] (24 hours after administration) is reported as “hemorrhagic necrosis”. For the same compound, in data set [1], the Hemorrhagic necrosis effect result is “G3”.

As for `CCCCCCCCCCCCOC(C)C1=C(C)C2=Cc3c(C(C)OCCCCCCCCCCCC)c(C)c4[n]3[Fe][n]3c(c(C)c(CCC(=O)NC(CC(=O)O)C(=O)O)c3=CC3=NC(=C4)C(C)=C3CCC(=O)NC(CC(=O)O)C(=O)O)=CC1=N2` (centres unmarked) [(64) C12-Fe-DP-diAsp, 2,4-bis(1-dodecyloxyethyl)-Fe-deuteroporphynyl diaspartic acid], in data set [1], the Hemorrhagic necrosis effect result is recorded as “G3”.

For the compound `CCCCCCCCCCOC(C)C1=C(C)C2=Cc3c(C(C)OCCCCCCCCCC)c(C)c4[n]3[Co][n]3c(c(C)c(CCC(=O)NC(CC(=O)O)C(=O)O)c3=CC3=NC(=C4)C(C)=C3CCC(=O)NC(CC(=O)O)C(=O)O)=CC1=N2` (centres unmarked) [(66) C10-Co-DP-diAsp, 2,4-bis(1-decyloxyethyl)-Co-deuteroporphynyl diaspartic acid], the Hemorrhagic necrosis effect entry in data set [1] is recorded as “G1”.

As to `CCCCCCCCCCCCOC(C)C1=C(C)c2cc3[nH]c(cc4nc(cc5[nH]c(cc1n2)c(C)c5C(C)OCCCCCCCCCCCC)C(C)=C4CCC(=O)NC(CC(=O)O)C(=O)O)c(CCC(=O)NC(CC(=O)O)C(=O)O)c3C.[Co]` (centres unmarked) [(67) C12-Co-DP-diAsp, 2,4-bis(1-dodecyloxyethyl)-Co-deuteroporphynyl diaspartic acid], the Hemorrhagic necrosis effect entry in data set [1] is “G1”.

As for `CCCCCCCCCCCCOC(C)C1=C(C)C2=Cc3c(C(C)OCCCCCCCCCCCC)c(C)c4[n]3[Cu][n]3c(c(C)c(CCC(=O)NC(CC(=O)O)C(=O)O)c3=CC3=NC(=C4)C(C)=C3CCC(=O)NC(CC(=O)O)C(=O)O)=CC1=N2` (centres unmarked) [(70) C12-Cu-DP-diAsp, 2,4-bis(1-dodecyloxyethyl)-Cu-deuteroporphynyl diaspartic acid], the Hemorrhagic necrosis effect result in data set [1] was “G1”.

In the case of `CCCCCCCCCCCCOC(C)C1=C(C)C2=Cc3c(C(C)OCCCCCCCCCCCC)c(C)c4[n]3[Zn][n]3c(c(C)c(CCC(=O)NC(CC(=O)O)C(=O)O)c3=CC3=NC(=C4)C(C)=C3CCC(=O)NC(CC(=O)O)C(=O)O)=CC1=N2` (centres unmarked) [(73) C12-Zn-DP-diAsp, 2,4-bis(1-dodecyloxyethyl)-Zn-deuteroporphynyl diaspartic acid], the Hemorrhagic necrosis effect result in data set [1] is on record as “G2”.

Source of the values: EP0350948B1, “Porphyrin derivatives” (TOYOHAKKA KOGYO KABUSHIKI KAISHA, priority 1988, dated 1990).
